Reference: patent US9499550B2 (BRISTOL-MYERS SQUIBB COMPANY, priority 2012, dated 2016)
Like-named read-outs stand apart in the source and are kept apart here.

What was measured:
[1] = system: HCV genotype 1b (Con1) replicon in HUH-7 cells; assay: HCV replicon luciferase reporter assay, genotype 1b; type: cell-based; conditions: Hepatitis C virus, Huh-7, 72 h, 3 days incubation
Outline: (§1)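 Replicon inhibition for both genotypes was measured as Renilla luciferase signal (EnduRen, 7.5 μM final, 2 h) after 3-day, 37° C exposure of replicon-bearing HUH-7 cells in 4% FCS DMEM, 0.5% DMSO. The 1b construct carries S1179I; the 1a H77 construct carries P1496L and S2204I. Twenty-point, 3-fold dilutions were fitted four-parametrically for EC50, and CC50 was taken from multiplexed Cell Titer-Blue.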

[2] = system: HCV genotype 1a (H77 strain) replicon in HUH-7 cells; assay: HCV replicon luciferase reporter assay, genotype 1a; type: cell-based; conditions: Hepatitis C virus, Huh-7, 72 h, 3 days incubation
Outline: as §1

[3] = HCV genotype 1b replicon luciferase, read-out: LE_1b (EC50, range)
[4] = HCV genotype 1a replicon luciferase, read-out: LE_1a (EC50, range)
[5] = HCV genotype 1b replicon luciferase assay, range class, read-out: LE_1b (EC50, range)
[6] = HCV genotype 1a replicon luciferase assay, range class, read-out: LE_1a (EC50, range)

Row | SMILES | EC50 [1, 3] [nM] | EC50 [2, 4] [nM] | EC50 [1, 5] [nM] | EC50 [2, 6] [nM] | EC50 ([1]; HCV genotype 1b replicon luciferase assay, read-out: LE_1b (EC50)) [nM] | EC50 ([2]; HCV genotype 1a replicon luciferase assay, read-out: LE_1a (EC50)) [nM]
1 | CC[C@@H]1C[C@H](C)CC/C=C\[C@@H]2C[C@@]2(C(=O)NS(=O)(=O)C2(C)CC2)NC(=O)[C@@H]2C[C@@H](Oc3ncc(C(=O)O)c4cc(OC)ccc34)CN2C(=O)[C@H]1NC(=O)OC(C)(C)C(F)(F)F [Compound 4276, 1-(((2R,6S,7R,9R,13aS,14aR,16aS,Z)-7-ethyl-9-methyl-14a-(((1-methylcyclopropyl)sulfonyl)carbamoyl)-5,16-dioxo-6-((((1,1,1-trifluoro-2-methylpropan-2-yl)oxy)carbonyl)amino)-1,2,3,5,6,7,8,9,10,11,13a,14,14a,15,16,16a-hexadecahydrocyclopropa[e]pyrrolo[1,2-a][1,4]diazacyclopentadecin-2-yl)oxy)-6-methoxyisoquinoline-4-carboxylic acid] | 35 to 620 | 35 to 620 |  |  |  | 
2 | COc1ccc2c(O[C@@H]3C[C@H]4C(=O)N[C@]5(C(=O)NS(=O)(=O)C6(C)CC6)C[C@H]5/C=C\CC[C@@H](C)C[C@@H](C)[C@H](NC(=O)O[C@@H]5C[C@@H]6C[C@@H]6C5)C(=O)N4C3)nc(-c3ccc(F)cc3)cc2c1 [Compound 3087, (1R,3r,5S)-bicyclo[3.1.0]hexan-3-yl((2R,6S,7R,9R,13aS,14aR,16aS,Z)-2-((3-(4-fluorophenyl)-6-methoxyisoquinolin-1-yl)oxy)-7,9-dimethyl-14a-(((1-methylcyclopropyl)sulfonyl)carbamoyl)-5,16-dioxo-1,2,3,5,6,7,8,9,10,11,13a,14,14a,15,16,16a-hexadecahydrocyclopropa[e]pyrrolo[1,2-a][1,4]diazacyclopentadecin-6-yl)carbamate] |  |  | < 5.46 | < 5.46 |  | 
3 | COc1cnc(O[C@@H]2C[C@H]3C(=O)N[C@]4(C(=O)NS(=O)(=O)C5(CF)CC5)C[C@H]4/C=C\CC[C@@H](C)C[C@@H](C)[C@H](NC(=O)OC(C)(C)C)C(=O)N3C2)c2cc(F)ccc12 [Compound 4082, tert-butyl (2R,6S,7R,9R,13aS,14aR,16aS,Z)-2-(7-fluoro-4-methoxyisoquinolin-1-yloxy)-14a-(1-(fluoromethyl)cyclopropylsulfonylcarbamoyl)-7,9-dimethyl-5,16-dioxo-1,2,3,5,6,7,8,9,10,11,13a,14,14a,15,16,16a-hexadecahydrocyclopropa[e]pyrrolo[1,2-a][1,4]diazacyclopentadecin-6-ylcarbamate] | < 5.46 | < 5.46 |  |  |  | 
4 | COc1ccc2c(O[C@@H]3C[C@H]4C(=O)N[C@]5(C(=O)NS(=O)(=O)C6(CF)CC6)C[C@H]5/C=C\CC[C@H](C)C[C@@H](C)[C@H](NC(=O)OC(C)(C)C(F)(F)F)C(=O)N4C3)nc(C(F)(F)F)cc2c1 [Compound 1168, 1,1,1-trifluoro-2-methylpropan-2-yl((2R,6S,7R,9S,13aS,14aR,16aS,Z)-14a-(((1-(fluoromethyl)cyclopropyl)sulfonyl)carbamoyl)-2-((6-methoxy-3-(trifluoromethyl)isoquinolin-1-yl)oxy)-7,9-dimethyl-5,16-dioxo-1,2,3,5,6,7,8,9,10,11,13a,14,14a,15,16,16a-hexadecahydrocyclopropa[e]pyrrolo[1,2-a][1,4]diazacyclopentadecin-6-yl)carbamate] |  |  | 4.82 to 103 | 4.82 to 103 |  | 
5 | CCOc1ccc2c(O[C@@H]3C[C@H]4C(=O)N[C@]5(C(=O)NS(=O)(=O)C6(CF)CC6)C[C@H]5/C=C\CC[C@@H](C)C[C@@H](C)[C@H](NC(=O)OC(C)(C)C)C(=O)N4C3)nccc2c1 [Compound 5367, tert-butyl ((2R,6S,7R,9R,13aS,14aR,16aS,Z)-2-((6-ethoxyisoquinolin-1-yl)oxy)-14a-(((1-(fluoromethyl)cyclopropyl)sulfonyl)carbamoyl)-7,9-dimethyl-5,16-dioxo-1,2,3,5,6,7,8,9,10,11,13a,14,14a,15,16,16a-hexadecahydrocyclopropa[e]pyrrolo[1,2-a][1,4]diazacyclopentadecin-6-yl)carbamate] | 0.1 to 0.5 | 0.51 to 1 |  |  |  | 
6 | CC(C)n1nc(O[C@@H]2C[C@H]3C(=O)N[C@]4(C(=O)NS(=O)(=O)C5(C)CC5)C[C@H]4/C=C\CC[C@@H](C)C[C@@H](C)[C@H](NC(=O)OC(C)(C)C)C(=O)N3C2)c2ccccc2c1=O [Compound 1004, tert-butyl ((2R,6S,7R,9R,13aS,14aR,16aS,Z)-2-((3-isopropyl-4-oxo-3,4-dihydrophthalazin-1-yl)oxy)-7,9-dimethyl-14a-(((1-methylcyclopropyl)sulfonyl)carbamoyl)-5,16-dioxo-1,2,3,5,6,7,8,9,10,11,13a,14,14a,15,16,16a-hexadecahydrocyclopropa[e]pyrrolo[1,2-a][1,4]diazacyclopentadecin-6-yl)carbamate] |  |  | 4.82 to 103 | > 87.4 | 48.8 | 110
7 | COc1ccc2c(O[C@@H]3C[C@H]4C(=O)N[C@]5(C(=O)NS(=O)(=O)C6CC6)C[C@H]5/C=C\CC[C@H](C)C[C@@H](C)[C@H](NC(=O)OC(C)(C)C(F)(F)F)C(=O)N4C3)nc(-c3ccc(OC(C)C)cc3)nc2c1 [Compound 3021, 1,1,1-trifluoro-2-methylpropan-2-yl((2R,6S,7R,9S,13aS,14aR,16aS,Z)-14a-((cyclopropylsulfonyl)carbamoyl)-2-((2-(4-isopropoxyphenyl)-7-methoxyquinazolin-4-yl)oxy)-7,9-dimethyl-5,16-dioxo-1,2,3,5,6,7,8,9,10,11,13a,14,14a,15,16,16a-hexadecahydrocyclopropa[e]pyrrolo[1,2-a][1,4]diazacyclopentadecin-6-yl)carbamate] |  |  | < 5.46 | < 5.46 |  | 
8 | COc1cc(F)cc2c(O[C@@H]3C[C@H]4C(=O)N[C@]5(C(=O)NS(=O)(=O)C6(CF)CC6)C[C@H]5/C=C\CC[C@@H](C)C[C@@H](C)[C@H](NC(=O)OC(C)(C)C(F)(F)F)C(=O)N4C3)nccc12 [Compound 3176, 1,1,1-trifluoro-2-methylpropan-2-yl((2R,6S,7R,9R,13aS,14aR,16aS,Z)-2-((7-fluoro-5-methoxyisoquinolin-1-yl)oxy)-14a-(((1-(fluoromethyl)cyclopropyl)sulfonyl)carbamoyl)-7,9-dimethyl-5,16-dioxo-1,2,3,5,6,7,8,9,10,11,13a,14,14a,15,16,16a-hexadecahydrocyclopropa[e]pyrrolo[1,2-a][1,4]diazacyclopentadecin-6-yl)carbamate] |  |  | < 5.46 | < 5.46 |  | 
9 | COc1ccc2c(O[C@@H]3C[C@H]4C(=O)N[C@]5(C(=O)NS(=O)(=O)C6(C)CC6)C[C@H]5/C=C\CC[C@H](C)C[C@@H](C)[C@H](NC(=O)OC(C)(C)C(F)(F)F)C(=O)N4C3)nc(-c3ccc(F)cc3)cc2c1 [Compound 3079, 1,1,1-trifluoro-2-methylpropan-2-yl((2R,6S,7R,9S,13aS,14aR,16aS,Z)-2-((3-(4-fluorophenyl)-6-methoxyisoquinolin-1-yl)oxy)-7,9-dimethyl-14a-(((1-methylcyclopropyl)sulfonyl)carbamoyl)-5,16-dioxo-1,2,3,5,6,7,8,9,10,11,13a,14,14a,15,16,16a-hexadecahydrocyclopropa[e]pyrrolo[1,2-a][1,4]diazacyclopentadecin-6-yl)carbamate] |  |  | < 5.46 | 4.82 to 103 |  | 
10 | COc1ccc2c(O[C@@H]3C[C@H]4C(=O)N[C@]5(C(=O)NS(=O)(=O)C6(C)CC6)C[C@H]5/C=C\CC[C@@H](C)C[C@@H](C)[C@H](NC(=O)OC(C)(C)C(C)(F)F)C(=O)N4C3)nc3c(c2c1)CCCO3 [Compound 6082, 3,3-difluoro-2-methylbutan-2-yl((2R,6S,7R,9R,13aS,14aR,16aS,Z)-2-((9-methoxy-2,3-dihydro-1H-pyrano[2,3-c]isoquinolin-6-yl)oxy)-7,9-dimethyl-14a-(((1-methylcyclopropyl)sulfonyl)carbamoyl)-5,16-dioxo-1,2,3,5,6,7,8,9,10,11,13a,14,14a,15,16,16a-hexadecahydrocyclopropa[e]pyrrolo[1,2-a][1,4]diazacyclopentadecin-6-yl)carbamate] | 1.01 to 5 | 0.51 to 1 |  |  |  | 
11 | C[C@@H]1CC/C=C\[C@@H]2C[C@@]2(C(=O)NS(=O)(=O)C2(CF)CC2)NC(=O)[C@@H]2C[C@@H](Oc3ncc(N4CCOCC4)c4ccccc34)CN2C(=O)[C@@H](NC(=O)OC(C)(C)C(F)(F)F)[C@H](C)C1 [Compound 5449, 1,1,1-trifluoro-2-methylpropan-2-yl((2R,6S,7R,9R,13aS,14aR,16aS,Z)-14a-(((1-(fluoromethyl)cyclopropyl)sulfonyl)carbamoyl)-7,9-dimethyl-2-((4-morpholinoisoquinolin-1-yl)oxy)-5,16-dioxo-1,2,3,5,6,7,8,9,10,11,13a,14,14a,15,16,16a-hexadecahydrocyclopropa[e]pyrrolo[1,2-a][1,4]diazacyclopentadecin-6-yl)carbamate] | 0.51 to 1 | 1.01 to 5 |  |  |  | 
12 | COc1ccc2c(O[C@@H]3C[C@H]4C(=O)N[C@]5(C(=O)NS(=O)(=O)C6(F)CC6)C[C@H]5/C=C\CC[C@@H](C)C[C@@H](C)[C@H](NC(=O)OCC5(C)CC5)C(=O)N4C3)nccc2c1 [Compound 4036] | < 5.46 | < 5.46 |  |  |  | 
